From PubChem BioAssay AID652282 (Vanderbilt Specialized Chemistry Center, 2013)
pIC50: −log10 of the molar value. Active and inactive are the calls of the source. The rule behind the calls is not given here.

Key:
[1] = tested on: BMP4-induced signaling reporter cell assay; test: blockade of BMP4-driven reporter signal – reporter cells, SAR follow-up (AID 652282)
[2] = as above; conditions: BMP4-induced signaling reporter cell assay; at 10 µM (top of the series)

SMILES | pIC50 [1] | IC50 [1] | remaining activity % [2]
c1ccc2c(-c3cnn4cc(-c5ccc(N6CCOCC6)cc5)cnc34)ccnc2c1 |  |  | -11
COc1ccc(-c2cnc3c(-c4ccnc5ccccc45)cnn3c2)cc1 |  |  | -16.3
c1cc(N2CCNCC2)ccc1-c1cnc2c(-c3cn[nH]c3)cnn2c1 |  |  | -11.7
Clc1cc(-c2cnn3cc(-c4ccc(N5CCOCC5)cc4)cnc23)ccn1 | 6.22 |  | 
c1cc(N2CCOCC2)ccc1-c1cnc2c(-c3cn[nH]c3)cnn2c1 | 6.76 |  | 
Clc1cc(-c2cnn3cc(-c4ccc(N5CCNCC5)cc4)cnc23)ccn1 | 6.57 |  | 

Continued, in another order:

pIC50 [1] | IC50 [1] | SMILES | remaining activity % [2]
5.31 |  | COc1ccc(-c2cnc3c(-c4cncc5ccccc45)cnn3c2)cc1 | 
6.82 |  | COc1ccc(-c2cnc3c(-c4cccc5ncccc45)cnn3c2)cc1 | 
6.56 |  | c1ccc2c(-c3cnn4cc(-c5ccc(N6CCOCC6)cc5)cnc34)csc2c1 | 
 | 6700 nM (inactive) | COc1ccc(-c2cnc3c(-c4cccc5cccnc45)cnn3c2)cc1 | 
6.65 |  | c1ccc2c(-c3cnn4cc(-c5ccc(N6CCNCC6)cc5)cnc34)csc2c1 | 
5.35 |  | COc1ccc(-c2cnc3c(-c4ccnc5ccsc45)cnn3c2)cc1 | 
7.42 |  | COc1ccc(-c2cnc3c(-c4ccnc5ncccc45)cnn3c2)cc1 | 
